System: patients with cGVHD
Conditions: Cohort 1 200 mg QD

CC(C)NC(=O)COc1cccc(-c2nc(Nc3ccc4[nH]ncc4c3)c3ccccc3n2)c1 [Belumosudil, 2-{3-[4-(1H-indazol-5-ylamino)-2-quinazolinyl]phenoxy}-N-(propan-2-yl) acetamide]
Rash erythematous: # Events: 0 | Rash erythematous: Affected/At Risk (%): 0/17 (0%) | Rash maculo-papular: # Events: 2 | Rash maculo-papular: Affected/At Risk (%): 2/17 (11.76%) | Rash pustular: # Events: 0 | Rash pustular: Affected/At Risk (%): 0/17 (0%) | Rash: # Events: 2 | Rash: Affected/At Risk (%): 1/17 (5.88%) | Red blood cells urine positive: # Events: 0 | Red blood cells urine positive: Affected/At Risk (%): 0/17 (0%) | Renal failure: # Events: 0 | Renal failure: Affected/At Risk (%): 0/17 (0%) | Respiratory syncytial virus infection: # Events: 0 | Respiratory syncytial virus infection: Affected/At Risk (%): 0/17 (0%) | Respiratory tract infection fungal: # Events: 1 | Respiratory tract infection fungal: Affected/At Risk (%): 1/17 (5.88%) | Respiratory tract infection: # Events: 1 | Respiratory tract infection: Affected/At Risk (%): 1/17 (5.88%) | Restless legs syndrome: # Events: 0 | Restless legs syndrome: Affected/At Risk (%): 0/17 (0%) | Rosacea: # Events: 0 | Rosacea: Affected/At Risk (%): 0/17 (0%) | SAE, No. (%): 5 (29) | Sinus pain: # Events: 2 | Sinus pain: Affected/At Risk (%): 2/17 (11.76%) | Sinusitis: # Events: 1 | Sinusitis: Affected/At Risk (%): 1/17 (5.88%) | Skin abrasion: # Events: 0 | Skin abrasion: Affected/At Risk (%): 0/17 (0%) | Skin lesion: # Events: 0 | Skin lesion: Affected/At Risk (%): 0/17 (0%) | Skin papilloma: # Events: 1 | Skin papilloma: Affected/At Risk (%): 1/17 (5.88%) | Spinal compression fracture: # Events: 1 | Spinal compression fracture: Affected/At Risk (%): 1/17 (5.88%) | Squamous cell carcinoma of skin: # Events: 0 | Squamous cell carcinoma of skin: Affected/At Risk (%): 0/17 (0%) | Stomatitis: # Events: 2 | Stomatitis: Affected/At Risk (%): 1/17 (5.88%) | Superior vena cava syndrome: # Events: 0 | Superior vena cava syndrome: Affected/At Risk (%): 0/17 (0%) | TEAE, participants (%): 17 (100%) participants | TESAE, participants (%): 5 (29%) participants | Tachycardia: # Events: 0 | Tachycardia: Affected/At Risk (%): 0/17 (0%) | Tendonitis: # Events: 0 | Tendonitis: Affected/At Risk (%): 0/17 (0%) | Testicular pain: # Events: 1 | Testicular pain: Affected/At Risk (%): 1/17 (5.88%) | Testicular swelling: # Events: 1 | Testicular swelling: Affected/At Risk (%): 1/17 (5.88%) | Thoracic spinal stenosis: # Events: 1 | Thoracic spinal stenosis: Affected/At Risk (%): 1/17 (5.88%) | Thrombocytopenia: # Events: 0 | Thrombocytopenia: Affected/At Risk (%): 0/17 (0%) | Thrombocytosis: # Events: 1 | Thrombocytosis: Affected/At Risk (%): 1/17 (5.88%) | Tinea pedis: # Events: 0 | Tinea pedis: Affected/At Risk (%): 0/17 (0%) | Tooth fracture: # Events: 0 | Tooth fracture: Affected/At Risk (%): 0/17 (0%) | Total other adverse events: Affected/At Risk (%): 17/17 (100%) | Transfusion reaction: # Events: 1 | Transfusion reaction: Affected/At Risk (%): 1/17 (5.88%) | Tremor: # Events: 3 | Tremor: Affected/At Risk (%): 2/17 (11.76%) | Type 2 diabetes mellitus: # Events: 1 | Type 2 diabetes mellitus: Affected/At Risk (%): 1/17 (5.88%) | Ulcerative keratitis: # Events: 0 | Ulcerative keratitis: Affected/At Risk (%): 0/17 (0%) | Upper respiratory tract infection: # Events: 16 | Upper respiratory tract infection: Affected/At Risk (%): 9/17 (52.94%) | Upper-airway cough syndrome: # Events: 0 | Upper-airway cough syndrome: Affected/At Risk (%): 0/17 (0%) | Urinary retention: # Events: 0 | Urinary retention: Affected/At Risk (%): 0/17 (0%) | Urinary tract infection: # Events: 0 | Urinary tract infection: Affected/At Risk (%): 0/17 (0%) | Urinary tract pain: # Events: 0 | Urinary tract pain: Affected/At Risk (%): 0/17 (0%) | Urine output decreased: # Events: 1 | Urine output decreased: Affected/At Risk (%): 1/17 (5.88%) | Vascular access complication: # Events: 0 | Vascular access complication: Affected/At Risk (%): 0/17 (0%)
